Here are results for one molecule from ChEMBL document CHEMBL3046243, “Synthesis, antifungal activity and SAR of N-substituted and N,N-disubstituted 2,4-dihydroxythiobenzamides” (J Pestic Sci, 2006).

The test system of data set [1] is Alternaria alternata. Put plainly: Antifungal activity against Alternaria alternata assessed as inhibition of mycelial growth at 200 ppm at 21 +/- 1 degC measured after 5 days. In kind it is functional. The note with it: 120 h, read-out: GI.
Data set [2] relates to Botrytis cinerea. Put plainly: Antifungal activity against Botryotinia fuckeliana assessed as inhibition of mycelial growth at 20 ppm at 21 +/- 1 degC measured after 3 days. In kind it is functional. The conditions noted are these: 72 h, read-out: GI.
Data set [3] has as its system Botrytis cinerea. Put plainly: Antifungal activity against Botryotinia fuckeliana assessed as inhibition of mycelial growth at 200 ppm at 21 +/- 1 degC measured after 3 days. In kind it is functional. The conditions noted are these: 72 h, read-out: GI.
Data set [4] has as its system Alternaria alternata. Briefly: Antifungal activity against Alternaria alternata assessed as inhibition of mycelial growth at 20 ppm at 21 +/- 1 degC measured after 5 days. In kind it is functional. The note with it: 120 h, read-out: GI.
Data set [5] can be described thus: Octanol-water partition coefficient, log P of the compound. In kind it is physicochemical.
A short description of data set [6]: Lipophilicity, log K of the compound in water. The note with it: buffer. In kind it is physicochemical.
Data set [7] relates to Phytophthora cactorum. Put plainly: Antifungal activity against Phytophthora cactorum assessed as inhibition of mycelial growth at 20 ppm at 21 +/- 1 degC measured after 5 days. In kind it is functional. The conditions noted are these: 120 h, read-out: GI.
The test system of data set [8] is Phytophthora cactorum. Put plainly: Antifungal activity against Phytophthora cactorum assessed as inhibition of mycelial growth at 200 ppm at 21 +/- 1 degC measured after 5 days. In kind it is functional. The note with it: 120 h, read-out: GI.
Data set [9] has as its system Fusarium culmorum. Briefly: Antifungal activity against Fusarium culmorum assessed as inhibition of mycelial growth at 20 ppm at 21 +/- 1 degC measured after 5 days. In kind it is functional. The note with it: 120 h, read-out: GI.
The subject of data set [10] is Fusarium culmorum. Briefly: Antifungal activity against Fusarium culmorum assessed as inhibition of mycelial growth at 200 ppm at 21 +/- 1 degC measured after 5 days. In kind it is functional. The conditions noted are these: 120 h, read-out: GI.
Data set [11] concerns Rhizoctonia solani. Briefly: Antifungal activity against Rhizoctonia solani assessed as inhibition of mycelial growth at 20 ppm at 21 +/- 1 degC measured after 4 days. The conditions noted are these: 96 h, read-out: GI. In kind it is functional.
In data set [12] the test system is Rhizoctonia solani. Briefly: Antifungal activity against Rhizoctonia solani assessed as inhibition of mycelial growth at 200 ppm at 21 +/- 1 degC measured after 4 days. In kind it is functional. The note with it: 96 h, read-out: GI.

As for `O=C(c1ccccc1)c1ccc(NC(=S)c2ccc(O)cc2O)cc1`, the inhibition of growth at 200 ppm in the data set with Alternaria alternata [1], with Botrytis cinerea [3], in the data set on Phytophthora cactorum [8], in the data set with Fusarium culmorum [10] and in the data set with Rhizoctonia solani [12] was 51% in each case. Besides, the inhibition of growth at 20 ppm worked out at 0% in the data set with Botrytis cinerea [2]; 0% in the data set on Alternaria alternata [4]; 21% in the data set on Phytophthora cactorum [7]; 0% in the data set with Fusarium culmorum [9]; 0% with Rhizoctonia solani [11]. Moreover, in data set [5], the logP (commonly the decadic logarithm of the partition coefficient of the neutral form, usually between octanol and water) was determined as 4.12. Also, in data set [6], the logKw amounted to 4.28.
